Results: publication PMC10683025, “Discovery of a Hydroxylamine-Based Brain-Penetrant EGFR Inhibitor for Metastatic Non-Small-Cell Lung Cancer” (Journal of Medicinal Chemistry, 2023)

Experiments:
AMPK-alpha2 = biological target: T1, AMPK-alpha2 (Homo sapiens, UniProt P54646); assay: KINOMEScan; type: binding; settings: AMPK-alpha2, 1 µM; read-out: Percent Control
T1 construct: purchased Eurofins DiscoverX (KINOMEscan)
Excerpt: (§3) Percent control was mapped onto the kinome tree using TREEspot.

[1] = biological target: T2, ABL1(F317I)-nonphosphorylated (Homo sapiens, UniProt P00519, F317I); assay: KINOMEScan; type: binding; settings: read-out: Percent Control
T2 construct: purchased Eurofins DiscoverX
Excerpt: as §3

[2] = In vitro metabolite identification; type: in vitro ADME; settings: human hepatocytes, 10 μM
[3] = system: SK-BR-3 (HER2-positive breast cancer); assay: CellTiter-Glo cell viability assay; type: cell-based, human; settings: Homo sapiens, SK-BR-3; 72 h, unadjusted for FBS
Method: (§1) The A431, HCC827, SK-BR-3, ZR-75–30, AU565, and Caco-2 cell lines were obtained from ATCC. The NCI-H1975 cell line was obtained from SIBS. The NCI-H3255 cell line was obtained from CoBioer. Engineered Ba/F3 cell lines were obtained from Crown Bioscience. MCKII-MDR1 cells were obtained from The Netherlands Cancer Institute. HEK293 cells were obtained from Invitrogen. A431 cells were cultured in DMEM (Life Technologies) with 10% FBS. HCC827, NCI-H1975, and AU565 cells were cultured in RPMI1640 (Invitrogen) with 10% FBS. NCI-H3255 cells were cultured in BEGM (Lonza) with 10% FBS. Ba/F3 EGFR-del E746_A750/C797S and Ba/F3 EGFR-L858R/C797S cells were cultured in RPMI (Invitrogen) with 10% FBS. SK-BR-3 cells were cultured in McCoy’s 5a (Invitrogen) with 10% FBS. ZR-75-30 cells were cultured in RPMI1640 (Invitrogen) with 20% FBS. Caco-2 and MCKII-MDR1 culture information is given in the Permeability Studies section. HEK293 cells were cultured in DMEM (Gibco) with 10% FBS, 0.1 mM NEAA, 25 mM HEPES, 100 U/mL penicillin-streptomycin, μg/mL blasticidin, and 400 μg/mL Geneticin. All cells were cultured in a humidified incubator with 5% CO2 at 37 °C.
(§2) Viability assays using A431, HCC827, NCI-H1975, NCI-H3255, Ba/F3 EGFR-del E746_A750/C797S, Ba/F3 EGFR-L858R/C797S, AU565, SK-BR-3, and ZR-75-30 cells were performed at Crown BioScience. Cells were plated into 96-well plates at 1500–7000 cells per well and dosed in triplicate (n = 3) in a nine-point, 4-fold dilution series with compounds (0.15 nM to 10 μM) in DMSO and incubated for 72 h. After 72 h, cell viability was assayed by CellTiter-Glo Luminescent Viability Assay (Promega). Dose–response curves were generated and used to calculate the IC50 values which were calculated on GraphPad Prism from the nonlinear regression equation fitted with a sigmoidal dose response and are presented as mean ± SEM.

[4] = system: NCI-H1975 (EGFR mutation = L858R/T790M); assay: CellTiter-Glo cell viability assay; type: cell-based, human; settings: Homo sapiens, NCI-H1975; 72 h, unadjusted for FBS
Method: as §1, §2

[5] = system: ZR-75-30 (HER2-positive breast cancer); assay: CellTiter-Glo cell viability assay; type: cell-based, human; settings: Homo sapiens, ZR-75-30; 72 h, unadjusted for FBS
Method: as §1, §2

[6] = system: AU565 (HER2-positive breast cancer); assay: CellTiter-Glo cell viability assay; type: cell-based, human; settings: Homo sapiens, AU565; 72 h, unadjusted for FBS
Method: as §1, §2

[7] = system: A431 cell line (overexpressed EGFRwt); assay: CellTiter-Glo cell viability assay; type: cell-based, human; settings: Homo sapiens, A-431; 72 h, unadjusted for FBS
Method: as §1, §2

EGFRwt = biological target: T3, EGFRwt (Homo sapiens, UniProt P00533); assay: KINOMEScan; type: binding; settings: read-out: Percent Control
T3 construct: purchased Eurofins DiscoverX (contract assay)
Excerpt: as §3

ACVR2A = biological target: T4, ACVR2A (Homo sapiens, UniProt P27037); assay: KINOMEScan; type: binding; settings: read-out: Percent Control
T4 construct: purchased Eurofins DiscoverX (KINOMEscan)
Excerpt: as §3

ALK(L1196M) = biological target: T5, ALK(L1196M) (Homo sapiens, UniProt Q9UM73, L1196M); assay: KINOMEScan; type: binding; settings: read-out: Percent Control
T5 construct: purchased Eurofins DiscoverX (KINOMEscan)
Excerpt: as §3

[8] = biological target: T6, ABL1(Q252H)-nonphosphorylated (Homo sapiens, UniProt P00519, Q252H); assay: KINOMEScan; type: binding; settings: read-out: Percent Control
T6 construct: purchased Eurofins DiscoverX
Excerpt: as §3

[9] = biological target: T7, ABL1(H396P)-nonphosphorylated (Homo sapiens, UniProt P00519, H396P); assay: KINOMEScan; type: binding; settings: read-out: Percent Control
T7 construct: purchased Eurofins DiscoverX
Excerpt: as §3

CYP3A4 = biological target: T8, CYP3A4 (Homo sapiens, UniProt P08684); assay: CYP450 inhibition in human liver microsomes; type: in vitro ADME; settings: midazolam
T8 construct: incubated with pooled human liver microsomes (0.5 mg/mL) (BD Gentest); tissue BD Gentest; host or cells: pooled human liver microsomes
Method: The activities tested were CYP1A2-mediated phenacetin O-demethylation, CYP2C19-mediated (S)-mephenyotin 4′-hydroxylation, CYP2C9-mediated diclofenac 4′-hydroxylation, CYP2D6-mediated dextromethorphan O-demethylation, and CYP3A4-mediated midazolam 1′-hydroxylation. […] The reactions were initiated by adding NADPH (1 mM final concentration) after a 5 min preincubation, and the assay was run in duplicate (n = 2). Samples were analyzed by ultra-performance liquid chromatography tandem mass spectrometry (UPLC-MS/MS).

[10] = biological target: T9, ABL1(Q252H)-phosphorylated (Homo sapiens, UniProt P00519, Q252H); assay: KINOMEScan; type: binding; settings: read-out: Percent Control
T9 construct: purchased Eurofins DiscoverX
Excerpt: as §3

TA1537 = assay: Background bacterial cytotoxicity assay; parameters: species or system Salmonella; key to Flag: A cytotoxicity value of less than 60% is flagged and the compound is considered as toxic (denoted as Cytox.); A hyphen (-) denotes no cytotoxicity at the respective concentration
Method: Compounds were assessed for mutagenicity at the Eurofins Panlabs in 384-well plates using four Salmonella strains: TA98, to probe for frameshift mutation (with quercetin as control), TA100 and TA1535, to probe for base pair insertions/deletions (with streptozotocin as control), and TA1537, to probe for frameshift mutations (with aminacridine as control) as previously described.[78] Each compound was incubated at 37 °C for 96 h at four different concentrations (5, 10, 50, and 100 μM), with each concentration tested using 48 replicates, both with and without rat liver S9 metabolic activation. A concurrent bacterial cytotoxicity assay was run at 0.6, 1.2, 2.5, 5, 10, 25, 50, and 100 μM to rule out false negatives. Bacterial cytotoxicity was expressed as percent of control growth (OD650). Compounds with growth of less than 60% control were flagged and considered bacterial cytotoxic. […] Significances of the positive counts between the treatment and control were determined using a one-tailed Fisher’s exact test.

T3 sequence (P00533 25-1210): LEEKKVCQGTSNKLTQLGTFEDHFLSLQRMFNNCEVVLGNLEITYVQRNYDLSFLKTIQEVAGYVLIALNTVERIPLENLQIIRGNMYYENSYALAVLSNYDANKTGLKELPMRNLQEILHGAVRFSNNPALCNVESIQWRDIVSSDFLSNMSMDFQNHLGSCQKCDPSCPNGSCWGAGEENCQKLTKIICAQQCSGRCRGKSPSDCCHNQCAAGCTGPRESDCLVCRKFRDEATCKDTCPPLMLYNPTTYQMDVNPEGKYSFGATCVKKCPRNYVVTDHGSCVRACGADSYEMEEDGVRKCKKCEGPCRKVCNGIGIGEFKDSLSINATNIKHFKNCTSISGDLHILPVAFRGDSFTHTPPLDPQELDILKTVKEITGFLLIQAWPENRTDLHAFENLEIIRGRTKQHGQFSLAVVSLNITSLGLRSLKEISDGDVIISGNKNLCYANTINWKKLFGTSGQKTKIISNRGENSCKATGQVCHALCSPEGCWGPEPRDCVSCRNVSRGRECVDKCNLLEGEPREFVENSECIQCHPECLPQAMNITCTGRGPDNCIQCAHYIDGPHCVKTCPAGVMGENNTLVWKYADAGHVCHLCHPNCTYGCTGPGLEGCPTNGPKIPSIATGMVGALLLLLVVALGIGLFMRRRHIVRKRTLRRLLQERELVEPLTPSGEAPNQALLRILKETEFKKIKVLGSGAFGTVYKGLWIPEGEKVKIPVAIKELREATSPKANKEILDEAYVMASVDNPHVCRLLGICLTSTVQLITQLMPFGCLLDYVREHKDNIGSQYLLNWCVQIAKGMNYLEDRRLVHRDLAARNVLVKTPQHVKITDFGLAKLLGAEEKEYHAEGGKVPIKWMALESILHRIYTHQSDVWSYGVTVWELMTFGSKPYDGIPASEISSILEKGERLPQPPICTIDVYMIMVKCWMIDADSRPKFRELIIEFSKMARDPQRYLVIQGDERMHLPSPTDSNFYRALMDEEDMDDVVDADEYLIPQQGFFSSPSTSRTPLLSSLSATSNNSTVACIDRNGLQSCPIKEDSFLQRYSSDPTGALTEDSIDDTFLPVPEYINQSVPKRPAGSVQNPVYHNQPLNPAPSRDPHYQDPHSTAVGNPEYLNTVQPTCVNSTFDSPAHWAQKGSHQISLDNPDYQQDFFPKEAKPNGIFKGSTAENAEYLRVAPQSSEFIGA
T5 sequence (Q9UM73 19-1620 L1196M): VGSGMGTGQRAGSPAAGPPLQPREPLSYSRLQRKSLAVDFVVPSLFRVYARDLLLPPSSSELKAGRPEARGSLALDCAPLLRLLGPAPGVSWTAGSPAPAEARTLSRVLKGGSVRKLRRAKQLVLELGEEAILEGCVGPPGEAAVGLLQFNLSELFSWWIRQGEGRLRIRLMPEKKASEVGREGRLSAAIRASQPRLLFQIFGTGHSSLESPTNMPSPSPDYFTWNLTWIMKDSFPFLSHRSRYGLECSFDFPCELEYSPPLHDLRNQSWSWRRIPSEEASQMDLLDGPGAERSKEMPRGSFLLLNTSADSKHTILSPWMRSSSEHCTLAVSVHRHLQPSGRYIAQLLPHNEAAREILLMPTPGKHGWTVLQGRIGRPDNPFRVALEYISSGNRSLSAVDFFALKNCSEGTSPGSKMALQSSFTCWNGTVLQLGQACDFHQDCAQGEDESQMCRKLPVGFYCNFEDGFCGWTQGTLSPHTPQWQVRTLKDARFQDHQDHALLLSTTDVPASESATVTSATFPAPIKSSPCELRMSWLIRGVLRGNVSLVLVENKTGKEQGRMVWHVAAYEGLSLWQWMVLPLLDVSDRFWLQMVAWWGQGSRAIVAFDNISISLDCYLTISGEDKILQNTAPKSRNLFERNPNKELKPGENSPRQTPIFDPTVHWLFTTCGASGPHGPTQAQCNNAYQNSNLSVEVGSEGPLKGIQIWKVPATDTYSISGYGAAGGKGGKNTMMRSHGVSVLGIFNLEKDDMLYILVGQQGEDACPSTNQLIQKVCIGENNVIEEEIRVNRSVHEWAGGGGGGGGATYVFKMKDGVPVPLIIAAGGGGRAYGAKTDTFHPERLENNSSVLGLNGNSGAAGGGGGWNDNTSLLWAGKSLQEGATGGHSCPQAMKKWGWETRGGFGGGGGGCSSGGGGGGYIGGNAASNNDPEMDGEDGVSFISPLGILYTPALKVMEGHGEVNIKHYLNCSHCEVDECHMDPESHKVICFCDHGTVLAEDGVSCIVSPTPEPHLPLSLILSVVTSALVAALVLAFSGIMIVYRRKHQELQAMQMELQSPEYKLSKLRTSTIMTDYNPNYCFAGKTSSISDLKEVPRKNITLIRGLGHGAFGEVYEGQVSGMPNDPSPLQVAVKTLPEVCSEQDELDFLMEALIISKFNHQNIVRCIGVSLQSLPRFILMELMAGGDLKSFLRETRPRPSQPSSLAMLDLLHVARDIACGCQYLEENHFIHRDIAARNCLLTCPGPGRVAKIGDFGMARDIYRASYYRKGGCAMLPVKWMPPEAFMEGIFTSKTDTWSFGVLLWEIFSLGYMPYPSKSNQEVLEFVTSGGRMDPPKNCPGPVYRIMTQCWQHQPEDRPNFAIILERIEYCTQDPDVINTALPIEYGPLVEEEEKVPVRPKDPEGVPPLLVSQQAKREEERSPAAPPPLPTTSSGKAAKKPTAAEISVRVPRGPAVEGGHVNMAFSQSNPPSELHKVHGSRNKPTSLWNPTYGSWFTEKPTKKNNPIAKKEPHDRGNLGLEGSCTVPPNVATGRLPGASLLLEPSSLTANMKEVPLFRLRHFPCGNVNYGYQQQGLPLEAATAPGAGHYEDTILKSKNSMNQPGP
T4 sequence (P27037 20-513): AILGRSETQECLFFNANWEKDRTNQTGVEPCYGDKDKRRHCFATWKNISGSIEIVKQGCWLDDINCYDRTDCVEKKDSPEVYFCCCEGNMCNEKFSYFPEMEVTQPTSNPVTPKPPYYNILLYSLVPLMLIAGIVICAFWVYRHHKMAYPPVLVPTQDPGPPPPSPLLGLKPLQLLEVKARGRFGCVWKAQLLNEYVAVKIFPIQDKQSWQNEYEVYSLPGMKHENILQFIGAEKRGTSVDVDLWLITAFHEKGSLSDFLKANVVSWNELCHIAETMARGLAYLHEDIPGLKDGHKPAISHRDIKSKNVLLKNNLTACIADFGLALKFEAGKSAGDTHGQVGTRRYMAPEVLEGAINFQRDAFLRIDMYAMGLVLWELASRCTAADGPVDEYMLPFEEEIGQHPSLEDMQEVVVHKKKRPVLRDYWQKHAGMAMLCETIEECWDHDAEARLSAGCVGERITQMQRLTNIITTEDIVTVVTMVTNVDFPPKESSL
T8 sequence (P08684 whole entry): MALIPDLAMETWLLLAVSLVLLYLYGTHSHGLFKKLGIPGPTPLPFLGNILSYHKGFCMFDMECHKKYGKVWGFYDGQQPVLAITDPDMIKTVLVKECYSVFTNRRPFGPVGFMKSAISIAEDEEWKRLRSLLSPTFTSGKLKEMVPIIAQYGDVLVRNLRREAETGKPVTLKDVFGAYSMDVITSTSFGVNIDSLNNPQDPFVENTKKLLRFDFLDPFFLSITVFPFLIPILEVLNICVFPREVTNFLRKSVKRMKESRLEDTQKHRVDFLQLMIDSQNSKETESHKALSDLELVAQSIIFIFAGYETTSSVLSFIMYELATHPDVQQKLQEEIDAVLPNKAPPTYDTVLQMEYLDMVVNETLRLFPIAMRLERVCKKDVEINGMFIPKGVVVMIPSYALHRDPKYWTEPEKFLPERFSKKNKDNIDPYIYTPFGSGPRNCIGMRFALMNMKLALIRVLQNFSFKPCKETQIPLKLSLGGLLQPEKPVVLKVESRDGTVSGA
T1 sequence (P54646 whole entry): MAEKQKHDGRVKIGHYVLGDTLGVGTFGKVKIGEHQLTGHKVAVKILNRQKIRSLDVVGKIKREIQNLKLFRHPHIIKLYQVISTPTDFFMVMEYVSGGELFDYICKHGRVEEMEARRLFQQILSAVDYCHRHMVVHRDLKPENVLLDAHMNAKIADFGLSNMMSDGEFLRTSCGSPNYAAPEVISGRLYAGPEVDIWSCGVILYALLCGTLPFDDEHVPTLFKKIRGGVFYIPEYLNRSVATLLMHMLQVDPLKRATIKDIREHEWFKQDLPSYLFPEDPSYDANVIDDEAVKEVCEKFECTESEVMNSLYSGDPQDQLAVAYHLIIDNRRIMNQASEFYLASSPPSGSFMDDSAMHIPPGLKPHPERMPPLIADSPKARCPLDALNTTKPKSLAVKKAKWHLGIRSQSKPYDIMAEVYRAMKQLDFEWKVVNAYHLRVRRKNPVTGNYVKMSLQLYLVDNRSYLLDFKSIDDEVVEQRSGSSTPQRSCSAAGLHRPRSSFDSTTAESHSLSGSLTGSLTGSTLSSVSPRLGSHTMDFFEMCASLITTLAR

COc1cc2ncnc(Nc3cccc(Cl)c3F)c2cc1OCCON1CCN(C)CC1 [Compound 9, N-(3-Chloro-2-fluorophenyl)-7-methoxy-6-(2-((4-methylpiperazin-1-yl)oxy)ethoxy)quinazolin-4-amine]
remaining binding at 1 µM (AMPK-alpha2): 97% | remaining binding at 1 µM [1]: 54% | share of parent/metabolite after incubation of 9 [2]: 14.20% | IC50 [3]: 1.51 µM | IC50 [4]: > 10 µM | IC50 [5]: 1.63 µM | IC50 [6]: 0.986 ± 0.138 µM | IC50 [7]: 0.083 µM | remaining binding at 1 µM (EGFRwt): 0.3% | remaining binding at 1 µM (ACVR2A): 100% | remaining binding at 1 µM (ALK(L1196M)): 100% | remaining binding at 1 µM [8]: 6.7% | remaining binding at 1 µM [9]: 1% | IC50 (CYP3A4): > 30 µM | remaining binding at 1 µM [10]: 8.8% | Flag (TA1537; TA1537-S9, 1.0E-04 M): - | Mean % Control (n = 3) (TA1537; TA1537-S9, 1.0E-04 M): 60.3% | Flag (TA1537; TA1537-S9, 1.0E-05 M): - | Mean % Control (n = 3) (TA1537; TA1537-S9, 1.0E-05 M): 88.7% | Flag (TA1537; TA1537-S9, 1.2E-06 M): - | Mean % Control (n = 3) (TA1537; TA1537-S9, 1.2E-06 M): 98.4% | Flag (TA1537; TA1537-S9, 2.5E-05 M): - | Mean % Control (n = 3) (TA1537; TA1537-S9, 2.5E-05 M): 83.8% | Flag (TA1537; TA1537-S9, 2.5E-06 M): - | Mean % Control (n = 3) (TA1537; TA1537-S9, 2.5E-06 M): 90.5% | Flag (TA1537; TA1537-S9, 5.0E-05 M): - | Mean % Control (n = 3) (TA1537; TA1537-S9, 5.0E-05 M): 71.1% | Flag (TA1537; TA1537-S9, 5.0E-06 M): - | Mean % Control (n = 3) (TA1537; TA1537-S9, 5.0E-06 M): 98.8% | Flag (TA1537; TA1537-S9, 6.0E-07 M): - | Mean % Control (n = 3) (TA1537; TA1537-S9, 6.0E-07 M): 101.7%
